Measured values taken from US8937091B2 (Japan Science and Technology Agency, priority 2009, dated 2015).

Columns and labels:
[1] = system: SOCE (store operated calcium entry) in CHO cells; experiment: Assay of SOCE (store operated calcium entry)-inhibiting action; format: cell-based, Chinese hamster; settings: CHO cells, thapsigargin; for inhibition at 30 µM / inhibition at 100 µM / inhibition at 10 µM: Cricetulus griseus, CHO, read-out: SOCE level (percentage of inhibition)
How it was run: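 CHO cells in calcium-free BSS received compound, then 1 μM thapsigargin 2 min later to deplete stores; after 9 min, 2 mM calcium chloride (final) added. Percent inhibition of the rise in intracellular calcium determined at various compound concentrations.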

[2] = system: IICR (IP3 induced calcium release) in CHO cells; experiment: Assay of IICR (IP3 induced calcium release)-inhibiting action; format: cell-based, Chinese hamster; settings: CHO cells, 10 μM ATP; for inhibition at 10 µM / inhibition at 30 µM / inhibition at 100 µM: Cricetulus griseus, CHO, read-out: IICR level (percentage of inhibition)
How it was run: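 Inhibition (%) of the intracellular calcium increase triggered by 10 μM ATP, measured in CHO cells in BSS with calcium. Compound given 1 min after the buffer exchange and 2 min before ATP; values reported per compound concentration.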

Row | Structure (SMILES) | inhibition at 30 µM ([1]; test compound 30 μmol) [%] | inhibition at 100 µM ([1]; test compound 100 μmol) [%] | inhibition at 10 µM ([2]; test compound 10 μmol) [%] | inhibition at 30 µM ([2]; test compound 30 μmol) [%] | inhibition at 100 µM ([2]; test compound 100 μmol) [%] | inhibition at 10 µM ([1]; test compound 10 μmol) [%] | IICR level (percentage of inhibition) ([2]; test compound 10 μmol) [%] | IICR level (percentage of inhibition) ([2]; test compound 30 μmol) [%] | SOCE level (percentage of inhibition) ([1]; test compound 10 μmol) [%] | SOCE level (percentage of inhibition) ([1]; test compound 30 μmol) [%] | SOCE level (percentage of inhibition) ([1]; test compound 100 μmol) [%] | IICR level (percentage of inhibition) ([2]; test compound 100 μmol) [%]
1 | O=C(CCNCCO)c1ccco1 [Example 275, 2-(N-2-hydroxyethyl)aminoethyl-2-furylketone] | 0 | 0 | 30 | 30 | 30 | – | – | – | – | – | – | –
2 | O=C(CCNCCCCNCCC(=O)c1cnccn1)c1cnccn1 [Example 276, N,N-bis(2-pyrazoylethyl)tetramethylenediamine] | 0 | 0 | 0 | 0 | 20 | – | – | – | – | – | – | –
3 | O=C(CCN(CCO)CCO)c1ccc(Cl)s1 [Example 277, 2-bis(N-2-hydroxyethyl)aminoethyl-5-chloro-2-thienylketone] | 0 | 0 | 0 | 0 | 20 | – | – | – | – | – | – | –
4 | CCN(CCC(=O)c1ccc(Cl)s1)Cc1ccccc1 [Example 278, 2-(N-ethylbenzyl)aminoethyl-5-chloro-2-thienylketone] | 30 | 40 | 30 | 20 | 60 | – | – | – | – | – | – | –
5 | CN(CCC(=O)c1ccc(Cl)s1)Cc1ccccc1 [Example 279, 2-(N-methylbenzyl)aminoethyl-5-chloro-2-thienylketone] | 30 | 40 | 20 | 0 | 40 | – | – | – | – | – | – | –
6 | CC(C)(C)N(CCC(=O)c1ccc(Cl)s1)Cc1ccccc1 [Example 280, 2-(N-t-butylbenzyl)aminoethyl-5-chloro-2-thienylketone] | 0 | 30 | 50 | 60 | 70 | – | – | – | – | – | – | –
7 | CC(O)CNCCC(=O)c1cnccn1 (centres unmarked) [Example 281, 2-(N-2-hydroxypropyl)aminoethyl-2-pyrazylketone] | 0 | 0 | 20 | 20 | 50 | – | – | – | – | – | – | –
8 | O=C(CCN1CCCC1CO)c1cnccn1 (centres unmarked) [Example 282, 2-(2-hydroxymethylpyrrolidino)ethyl-2-pyrazylketone] | 0 | 0 | 0 | 20 | 50 | – | – | – | – | – | – | –
9 | CC(C)N(CCC(=O)c1cc2ccccc2s1)Cc1ccccc1 [Example 283, 2-(N-isopropylbenzyl)aminoethyl-2-benzothienylketone] | 0 | 40 | 50 | 80 | 50 | – | – | – | – | – | – | –
10 | CC(C)N(CCO)CCC(=O)c1cc2ccccc2s1 [Example 284, 2-(N-isopropyl-2-hydroxyethyl)aminoethyl-2-benzothienylketone] | 0 | 0 | 0 | 0 | 40 | – | – | – | – | – | – | –
11 | CC(C)(C)N(CCC(=O)c1cc2ccccc2s1)Cc1ccccc1 [Example 285, 2-(N-t-butylbenzyl)aminoethyl-2-benzothienylketone] | 0 | 50 | 50 | 80 | 60 | – | – | – | – | – | – | –
12 | CCN(CCC(=O)c1nccs1)Cc1ccccc1 [Example 289, 2-(N-ethylbenzyl)aminoethyl-2-thiazolylketone] | 0 | 10 | 40 | 80 | 100 | – | – | – | – | – | – | –
13 | O=C(CCN(CCO)Cc1ccccc1)c1nccs1 [Example 290, 2-(N-2-hydroxyethylbenzyl)aminoethyl-2-thiazolylketone] | 0 | 0 | 40 | 60 | 90 | – | – | – | – | – | – | –
14 | CN(CCO)CCC(=O)c1nccs1 [Example 291, 2-(N-2-hydroxyethylmethyl)aminoethyl-2-thiazolylketone] | 0 | 0 | 40 | 70 | 100 | 0 | – | – | – | – | – | –
15 | CC(C)N(CCC(=O)c1ccc(Br)s1)Cc1ccccc1 [Example 292, 2-(N-isopropylbenzyl)aminoethyl-5-bromo-2-thienylketone] | 20 | 40 | 50 | 80 | 90 | 0 | – | – | – | – | – | –
16 | CCCCN(CCO)CCC(=O)c1ccc(Br)s1 [Example 293, 2-(N-2-hydroxyethylbutyl)aminoethyl-5-bromo-2-thienylketone] | 0 | 10 | 80 | 50 | 90 | 0 | – | – | – | – | – | –
17 | CC(C)(C)N(CCO)CCC(=O)c1ccc(Br)s1 [Example 294, 2-(N-2-hydroxyethyl-t-butyl)aminoethyl-5-bromo-2-thienylketone] | – | 10 | – | – | 50 | 0 | 70 | 40 | – | – | – | –
18 | CC(C)N(CCC(=O)n1nnc2ccccc21)Cc1ccccc1 [Example 295, 2-(N-isopropylbenzyl)aminoethyl-1-benzotriazoketone] | 0 | 0 | 80 | 70 | 60 | 0 | – | – | – | – | – | –
19 | O=C(CCN(CCO)CCO)n1nnc2ccccc21 [Example 296, 2-bis(N-2-hydroxyethyl)aminoethyl-1-benzotriazoketone] | 0 | 20 | 0 | 50 | 60 | 0 | – | – | – | – | – | –
20 | CC(C)N(CCC(=O)c1ccc(-c2ccccc2)cc1)Cc1ccccc1 [Example 297, 2-(N-isopropylbenzyl)aminoethyl-4-biphenylketone] | 50 | 60 | 50 | 50 | 90 | 20 | – | – | – | – | – | –
21 | CC(C)N(CCO)CCC(=O)c1ccc(-c2ccccc2)cc1 [Example 298, 2-(N-2-hydroxyethylisopropyl)aminoethyl-4-biphenylketone] | 40 | 50 | 60 | 50 | 60 | 20 | – | – | – | – | – | –
22 | O=C(CCN(CCO)c1ccccc1)c1ccc(-c2ccccc2)cc1 [Example 299, 2-(N-2-hydroxyethylphenyl)aminoethyl-4-biphenylketone] | 40 | 40 | 70 | 30 | 30 | 20 | – | – | – | – | – | –
23 | O=C(CCNCCc1ccccc1)c1ccco1 [Example 300, 2-(N-phenethyl)aminoethyl-2-furylketone] | 20 | 40 | 30 | 0 | 10 | – | – | – | – | – | – | –
24 | CCN(CCC(=O)c1ccc(Br)s1)Cc1ccccc1 [Example 301, 2-(N-ethylbenzyl)aminoethyl-5-bromo-2-thienylketone] | 30 | 40 | 70 | 70 | 90 | 20 | – | – | – | – | – | –
25 | CC(C)(C)N(CCC(=O)c1ccc(C#N)cc1)Cc1ccccc1 [Example 302, 2-(N-t-butylbenzyl)aminoethyl-4-cyanophenylketone] | 0 | 20 | – | 90 | – | 0 | 60 | – | – | – | – | –
26 | Cc1ccc(C(=O)CCN(Cc2ccccc2)C(C)(C)C)cc1 [Example 303, 4-tolyl(N-benzyl-N-t-butyl)aminoethylketone] | 0 | 0 | 20 | 20 | 40 | 0 | – | – | – | – | – | –
27 | CC(C)(C)N(CCC(=O)c1ccc(C#N)cc1)Cc1ccccc1 [Example 304, 4-cyanophenyl(N-benzyl-N-t-butyl)aminoethylketone] | – | – | – | – | – | – | 90 | 100 | 0 | 0 | 10 | 20
28 | CC(C)(C)N(CCC(=O)c1ccc(Cl)cc1)Cc1ccccc1 [Example 305, 2-(N-t-butyl-N-benzyl)aminoethyl-4-chlorophenylketone] | 20 | 60 | 60 | 70 | 50 | 20 | – | – | – | – | – | –
